Measured values as given in patent publication US4015974A, “Amido phosphorothiolates” (priority 1972, dated 1977).
Where two headings read alike, the source gives them in different places.

Legend:
Format in all cases: in vivo
[1] = system: carmine mite (Tetranychus telavius); assay: Lethal effect on carmine mite, leaf dipping (Table 3); conditions: foliar
Protocol: A large number of carmine mite adult were made parasitic on leaves of potted kidney beans at a 2-leaves stage which had elapsed 10 days after sowing. The leaves of kidney bean on which carmine mites had been made parasitic were dipped for 1 minute in each aqueous solution of the present compounds of wettable powder type. Water was given to the leaves not to kill them, and after 48 hours the death and alive were observed microscopically to calculate the mortality. Values of LC50 were obtained from the mortality.

[2] = system: large crabgrass (Digitaria sanguinalis); assay: Pre-emergence application, herbicidal effect on large crabgrass (Table 1); parameters: key: 0: not damaged; 5: completely killed; conditions: 20 days after application, score 0-5
Method in brief: (§1)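 Soil treatment after sowing, pre-emergence; wettable powder formulations diluted with water. Greenhouse, 20 d. Score 0 = no damage, 5 = complete kill.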

[3] = system: broad-leaved weeds, e.g., monochoria, false pimpernel and toothcup; assay: Water application, herbicidal effect on broad-leaved weeds (Table 2); parameters: key: 0: not damaged; 5: completely killed; conditions: 25 days, score 0-5
Method in brief: (§2)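 Paddy-soil pots flooded to paddy conditions; rice transplanted at 3-leaf stage, barnyard grass sown, broad-leaved weeds germinating spontaneously. Test compounds applied as wettable powder to soil under flooded water. Herbicidal effect and rice phytotoxicity scored 0–5 at 25 days after application.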

[4] = system: barnyard grass (Echinochloa crus-galli); assay: Water application, herbicidal effect on barnyard grass (Table 2); parameters: key: 0: not damaged; 5: completely killed; conditions: 25 days, score 0-5
Method in brief: as §2

[5] = system: radish; assay: Pre-emergence application, herbicidal effect on radish (Table 1); parameters: key: 0: not damaged; 5: completely killed; conditions: 20 days after application, score 0-5
Method in brief: as §1

[6] = system: broad-leaved weeds, e.g., monochoria, false pimpernel and toothcup; assay: Water application, herbicidal effect on broad-leaved weeds (Table 2); parameters: key: 0: no effect; 1: very slightly affected; 2: slightly affected; 3: moderately affected; 4: considerably affected; 5: completely killed; conditions: 10 g/a, 25 days, score 0-5
Description: Wagner pots of 14 cm. in diameter, which had been packed with 1.5 kg. of paddy field soil, were brought into the state of paddy fields. To the pots were transplanted rice seedlings at the 3-leave stage. Further, seeds of barnyard grass (Echinochloa crus-galli) were sowed in the pots and required amounts of test compounds were applied to the soil under water lodged condition. 25 days after application, the degrees of herbicidal activity and phytotoxity were investigated on above-mentioned plants which had been transplanted and sowed, and on broad-leaved weeds, e.g., monochoria (Monochoria viaginalis Presl.), false pimpernel (Linderna pyxidaria) and toothcup (Rotala indica Koehue), which had been spontaneously germinated. The test compounds were used in the form of wettable powder. The herbicidal effects and the phytotoxity were evaluated as follows by the numerals ranging from 0 to 5.

[7] = system: rice; assay: Water application, phytotoxicity on rice (Table 2); parameters: key: 0: no effect; 1: very slightly affected; 2: slightly affected; 3: moderately affected; 4: considerably affected; 5: completely killed; conditions: 25 days, score 0-5
Method in brief: as §2

[8] = system: redroot pigweed (Amaranthus retroflexus); assay: Pre-emergence application, herbicidal effect on redroot pigweed (Table 1); parameters: key: 0: not damaged; 5: completely killed; conditions: 20 days after application, score 0-5
Method in brief: as §1

[9] = system: common purslane (Portulaca oleracea); assay: Pre-emergence application, herbicidal effect on common purslane (Table 1); parameters: key: 0: not damaged; 5: completely killed; conditions: 20 days after application, score 0-5
Method in brief: as §1

[10] = system: common lambsquarter (Chenopodium album); assay: Pre-emergence application, herbicidal effect on common lambsquarter (Table 1); parameters: key: 0: not damaged; 5: completely killed; conditions: 20 days after application, score 0-5
Method in brief: as §1

[11] = system: barnyard grass (Echinochloa crus-galli); assay: Pre-emergence application, herbicidal effect on barnyard grass (Table 1); parameters: key: 0: not damaged; 5: completely killed; conditions: 20 days after application, score 0-5
Method in brief: as §1

[12] = system: nematode; assay: Effect on nematode (Table 7); parameters: tested at 500 ppm; conditions: 500 p.p.m., 24 hours
Protocol: 0.5 ml. of a nematode-containing aqueous solution separated from food according to Baermann's method was placed in a test tube with ground stopper containing 0.5 ml. of an aqueous dilute solution of each emulsifiable concentrates of the present compounds. The concentration of the active ingredient in the mixture was adjusted to 500 p.p.m. After 24 hours, the death and alive were observed microscopically to calculate the mortality.

CC(COc1ccc(C(C)(C)C)cc1)OCC(C)OS(=O)OCCl (centres unmarked) [Smite, reference compound]
102 µg/mL: LC50 ([1]; leaves dipped 1 minute, wettable powder, 48 hours, read-out: LC50)

CCCCCCCCSP(=O)(OCC)SCC(=O)N1CCCCC1C (centres unmarked) [Compound 8]
3: Herbicidal effect, redroot pigweed ([8]; 10 g./a.) | Herbicidal effect, common lambsquarter ([10]; 10 g./a.)
4: Herbicidal effect, large crabgrass ([2]; 10 g./a.) | Herbicidal effect, large crabgrass ([2]; 20 g./a.) | Herbicidal effects, broad-leaved weeds [6] | Herbicidal effect, redroot pigweed ([8]; 20 g./a.) | Herbicidal effect, redroot pigweed ([8]; 40 g./a.) | Herbicidal effect, common purslane ([9]; 10 g./a.) | Herbicidal effect, common purslane ([9]; 20 g./a.) | Herbicidal effect, common purslane ([9]; 40 g./a.) | Herbicidal effect, common lambsquarter ([10]; 20 g./a.) | Herbicidal effect, common lambsquarter ([10]; 40 g./a.) | Herbicidal effect, barnyard grass ([11]; 10 g./a.) | Herbicidal effect, barnyard grass ([11]; 20 g./a.)
5: Herbicidal effect, large crabgrass ([2]; 40 g./a.) | Herbicidal effects, broad-leaved weeds ([3]; 20 g/a) | Herbicidal effects, broad-leaved weeds ([3]; 40 g/a) | Herbicidal effects, barnyard grass ([4]; 10 g/a) | Herbicidal effects, barnyard grass ([4]; 20 g/a) | Herbicidal effects, barnyard grass ([4]; 40 g/a) | Herbicidal effect, barnyard grass ([11]; 40 g./a.)
0: Herbicidal effect, radish ([5]; 10 g./a.) | Herbicidal effect, radish ([5]; 20 g./a.) | Herbicidal effect, radish ([5]; 40 g./a.) | Phytotoxicity on rice ([7]; 10 g/a) | Phytotoxicity on rice ([7]; 20 g/a) | Phytotoxicity on rice ([7]; 40 g/a)

CCCOP(=O)(SCC(=O)N1CCCCC1C)SC(C)C (centres unmarked) [Compound 36]
4: Herbicidal effect, large crabgrass ([2]; 10 g./a.) | Herbicidal effect, large crabgrass ([2]; 20 g./a.) | Herbicidal effects, broad-leaved weeds [6] | Herbicidal effect, redroot pigweed ([8]; 20 g./a.) | Herbicidal effect, redroot pigweed ([8]; 40 g./a.) | Herbicidal effect, common purslane ([9]; 20 g./a.) | Herbicidal effect, common purslane ([9]; 40 g./a.) | Herbicidal effect, common lambsquarter ([10]; 10 g./a.) | Herbicidal effect, common lambsquarter ([10]; 20 g./a.) | Herbicidal effect, barnyard grass ([11]; 10 g./a.) | Herbicidal effect, barnyard grass ([11]; 20 g./a.)
0: Herbicidal effect, radish ([5]; 10 g./a.) | Herbicidal effect, radish ([5]; 20 g./a.) | Herbicidal effect, radish ([5]; 40 g./a.) | Phytotoxicity on rice ([7]; 10 g/a) | Phytotoxicity on rice ([7]; 20 g/a) | Phytotoxicity on rice ([7]; 40 g/a)
5: Herbicidal effect, large crabgrass ([2]; 40 g./a.) | Herbicidal effects, broad-leaved weeds ([3]; 20 g/a) | Herbicidal effects, broad-leaved weeds ([3]; 40 g/a) | Herbicidal effects, barnyard grass ([4]; 10 g/a) | Herbicidal effects, barnyard grass ([4]; 20 g/a) | Herbicidal effects, barnyard grass ([4]; 40 g/a) | Herbicidal effect, common lambsquarter ([10]; 40 g./a.) | Herbicidal effect, barnyard grass ([11]; 40 g./a.)
3: Herbicidal effect, redroot pigweed ([8]; 10 g./a.) | Herbicidal effect, common purslane ([9]; 10 g./a.)

CCCSP(=O)(OCC)SCC(=O)N1CCCCC1CC (centres unmarked) [Compound 14]
0: Herbicidal effect, radish ([5]; 10 g./a.) | Herbicidal effect, radish ([5]; 20 g./a.) | Herbicidal effect, radish ([5]; 40 g./a.) | Phytotoxicity on rice ([7]; 10 g/a) | Phytotoxicity on rice ([7]; 20 g/a) | Phytotoxicity on rice ([7]; 40 g/a)
23.1 µg/mL: LC50 ([1]; 48 h)
100%: Mortality [12]
4: Herbicidal effect, redroot pigweed ([8]; 10 g./a.) | Herbicidal effect, common lambsquarter ([10]; 10 g./a.)
5: Herbicidal effect, large crabgrass ([2]; 10 g./a.) | Herbicidal effect, large crabgrass ([2]; 20 g./a.) | Herbicidal effect, large crabgrass ([2]; 40 g./a.) | Herbicidal effects, broad-leaved weeds ([3]; 10 g/a) | Herbicidal effects, broad-leaved weeds ([3]; 20 g/a) | Herbicidal effects, broad-leaved weeds ([3]; 40 g/a) | Herbicidal effects, barnyard grass ([4]; 10 g/a) | Herbicidal effects, barnyard grass ([4]; 20 g/a) | Herbicidal effects, barnyard grass ([4]; 40 g/a) | Herbicidal effect, redroot pigweed ([8]; 20 g./a.) | Herbicidal effect, redroot pigweed ([8]; 40 g./a.) | Herbicidal effect, common purslane ([9]; 10 g./a.) | Herbicidal effect, common purslane ([9]; 20 g./a.) | Herbicidal effect, common purslane ([9]; 40 g./a.) | Herbicidal effect, common lambsquarter ([10]; 20 g./a.) | Herbicidal effect, common lambsquarter ([10]; 40 g./a.) | Herbicidal effect, barnyard grass ([11]; 10 g./a.) | Herbicidal effect, barnyard grass ([11]; 20 g./a.) | Herbicidal effect, barnyard grass ([11]; 40 g./a.)

CCCCSP(=O)(OCCC)SCC(=O)N1CCCCC1C (centres unmarked) [Compound 17]
3: Herbicidal effect, redroot pigweed ([8]; 10 g./a.) | Herbicidal effect, common purslane ([9]; 10 g./a.)
0: Herbicidal effect, radish ([5]; 10 g./a.) | Herbicidal effect, radish ([5]; 20 g./a.) | Herbicidal effect, radish ([5]; 40 g./a.) | Phytotoxicity on rice ([7]; 10 g/a) | Phytotoxicity on rice ([7]; 20 g/a) | Phytotoxicity on rice ([7]; 40 g/a)
5: Herbicidal effect, large crabgrass ([2]; 20 g./a.) | Herbicidal effect, large crabgrass ([2]; 40 g./a.) | Herbicidal effects, broad-leaved weeds ([3]; 20 g/a) | Herbicidal effects, broad-leaved weeds ([3]; 40 g/a) | Herbicidal effects, barnyard grass ([4]; 10 g/a) | Herbicidal effects, barnyard grass ([4]; 20 g/a) | Herbicidal effects, barnyard grass ([4]; 40 g/a) | Herbicidal effect, common lambsquarter ([10]; 40 g./a.) | Herbicidal effect, barnyard grass ([11]; 40 g./a.)
4: Herbicidal effect, large crabgrass ([2]; 10 g./a.) | Herbicidal effects, broad-leaved weeds [6] | Herbicidal effect, redroot pigweed ([8]; 20 g./a.) | Herbicidal effect, redroot pigweed ([8]; 40 g./a.) | Herbicidal effect, common purslane ([9]; 20 g./a.) | Herbicidal effect, common purslane ([9]; 40 g./a.) | Herbicidal effect, common lambsquarter ([10]; 10 g./a.) | Herbicidal effect, common lambsquarter ([10]; 20 g./a.) | Herbicidal effect, barnyard grass ([11]; 10 g./a.) | Herbicidal effect, barnyard grass ([11]; 20 g./a.)

CCCSP(=O)(OC)SCC(=O)N1CCCCC1C (centres unmarked) [Compound 30]
22.8 µg/mL: LC50 ([1]; 48 h)

CCOP(=O)(SCC(=O)N1CCCCC1C)SC1CCCCC1 (centres unmarked) [Compound 10]
4: Herbicidal effect, large crabgrass ([2]; 10 g./a.) | Herbicidal effect, large crabgrass ([2]; 20 g./a.) | Herbicidal effects, broad-leaved weeds [6] | Herbicidal effect, redroot pigweed ([8]; 20 g./a.) | Herbicidal effect, redroot pigweed ([8]; 40 g./a.) | Herbicidal effect, common purslane ([9]; 20 g./a.) | Herbicidal effect, common purslane ([9]; 40 g./a.) | Herbicidal effect, common lambsquarter ([10]; 20 g./a.) | Herbicidal effect, common lambsquarter ([10]; 40 g./a.) | Herbicidal effect, barnyard grass ([11]; 10 g./a.) | Herbicidal effect, barnyard grass ([11]; 20 g./a.)
3: Herbicidal effect, redroot pigweed ([8]; 10 g./a.) | Herbicidal effect, common purslane ([9]; 10 g./a.) | Herbicidal effect, common lambsquarter ([10]; 10 g./a.)
5: Herbicidal effect, large crabgrass ([2]; 40 g./a.) | Herbicidal effects, broad-leaved weeds ([3]; 20 g/a) | Herbicidal effects, broad-leaved weeds ([3]; 40 g/a) | Herbicidal effects, barnyard grass ([4]; 10 g/a) | Herbicidal effects, barnyard grass ([4]; 20 g/a) | Herbicidal effects, barnyard grass ([4]; 40 g/a) | Herbicidal effect, barnyard grass ([11]; 40 g./a.)
100%: Mortality [12]
0: Herbicidal effect, radish ([5]; 10 g./a.) | Herbicidal effect, radish ([5]; 20 g./a.) | Herbicidal effect, radish ([5]; 40 g./a.) | Phytotoxicity on rice ([7]; 10 g/a) | Phytotoxicity on rice ([7]; 20 g/a) | Phytotoxicity on rice ([7]; 40 g/a)

CCCOP(=O)(SCCc1ccccc1)SCC(=O)N1CCCCC1CC (centres unmarked) [Compound 19]
3: Herbicidal effect, common lambsquarter ([10]; 10 g./a.)
0: Herbicidal effect, radish ([5]; 10 g./a.) | Herbicidal effect, radish ([5]; 20 g./a.) | Herbicidal effect, radish ([5]; 40 g./a.) | Phytotoxicity on rice ([7]; 10 g/a) | Phytotoxicity on rice ([7]; 20 g/a) | Phytotoxicity on rice ([7]; 40 g/a)
5: Herbicidal effect, large crabgrass ([2]; 40 g./a.) | Herbicidal effects, broad-leaved weeds ([3]; 20 g/a) | Herbicidal effects, broad-leaved weeds ([3]; 40 g/a) | Herbicidal effects, barnyard grass ([4]; 10 g/a) | Herbicidal effects, barnyard grass ([4]; 20 g/a) | Herbicidal effects, barnyard grass ([4]; 40 g/a) | Herbicidal effect, barnyard grass ([11]; 40 g./a.)
4: Herbicidal effect, large crabgrass ([2]; 10 g./a.) | Herbicidal effect, large crabgrass ([2]; 20 g./a.) | Herbicidal effects, broad-leaved weeds [6] | Herbicidal effect, redroot pigweed ([8]; 10 g./a.) | Herbicidal effect, redroot pigweed ([8]; 20 g./a.) | Herbicidal effect, redroot pigweed ([8]; 40 g./a.) | Herbicidal effect, common purslane ([9]; 10 g./a.) | Herbicidal effect, common purslane ([9]; 20 g./a.) | Herbicidal effect, common purslane ([9]; 40 g./a.) | Herbicidal effect, common lambsquarter ([10]; 20 g./a.) | Herbicidal effect, common lambsquarter ([10]; 40 g./a.) | Herbicidal effect, barnyard grass ([11]; 10 g./a.) | Herbicidal effect, barnyard grass ([11]; 20 g./a.)
